Assay results published in PMC7822176, “Pursuing the Complexity of Alzheimer’s Disease: Discovery of Fluoren-9-Amines as Selective Butyrylcholinesterase Inhibitors and N-Methyl-D-Aspartate Receptor Antagonists” (Biomolecules, 2020).
Where two headings read alike, the source gives them in different places.

What was measured:
[1] = target: T1, hBChE (Homo sapiens, UniProt P06276); test: biochemical; format: biochemical; conditions: for IC50: mean of at least three experiments, read-out: IC50 ± SEM hBChE
T1 construct: made in house
Protocol: The human recombinant BChE and AChE were prepared at the Department of Toxicology and Military Pharmacy (Faculty of Military Health Sciences, Hradec Kralove, Czech Republic). 5,5′-dithiobis(2-nitrobenzoic acid) (Ellman’s reagent, DTNB), phosphate buffer (PB, pH 7.4), acetylthiocholine (ATC), and butyrylthiocholine (BTC) were purchased from Sigma-Aldrich, Prague, Czech Republic. For measuring purposes, polystyrene Nunc 96-well microplates with a flat bottom shape (Thermo Fisher Scientific, Waltham, MA, USA) were utilized. All the assays were carried out in 0.1-M KH2PO4/K2HPO4 buffer, pH 7.4. Enzyme solutions were prepared at 2.0 units/mL in 2-mL aliquots. […] Tested compounds were preincubated for 5 min. The reaction was started by the immediate addition of 20 µL of the substrate. […] Each concentration was assayed in triplicate. Software GraphPad Prism 5 (San Diego, CA, USA) was used for the statistical data evaluation.

[2] = target: T2, GluN1/GluN2A receptors (Homo sapiens, UniProt Q05586+Q12879); test: cell-based; conditions: for inhibition at 10 µM: HEK293, read-out: RI (%) ± SEM GluN1/GluN2A
T2 construct: expressed in transfected cells; host or cells: HEK293
Protocol: (§1) The cells grown in a 24-well plate were put in Opti-MEM I media containing a mixture of 0.9 µL of MATra-A Reagent (IBA) and 900 ng of DNA vectors carrying the human versions of the GluN1-1a (GluN1), GluN2A, or GluN2B subunits and green fluorescent protein (GFP; all vectors were added in equal ratio). The cells were placed on a strong magnet plate for 30 min and then trypsinized; resuspended in Opti-MEM I containing 1% FBS, 20-mM MgCl2, and 3-mM kynurenic acid (to inhibit the NMDAR-induced excitotoxicity); and plated on poly-L-lysine-coated glass coverslips. The electrophysiological experiments were executed 24–48 h after transfection.
(§2) Whole-cell patch-clamp recordings were conducted at room temperature on the GFP-positive HEK293 cells using an Axopatch 200B amplifier (Molecular Devices, San Jose, CA, USA); the series resistance compensation was >80% for all cells. […] The WAS02 application system, which can reach the solution exchange time around the recorded cell of 10–20 ms, was used to apply the extracellular solution (ECS).

[3] = target: T3, GluN1/GluN2B receptors (Homo sapiens, UniProt Q05586+Q13224); test: cell-based; conditions: for inhibition at 10 µM: HEK293, read-out: RI (%) ± SEM GluN1/GluN2B
T3 construct: expressed in transfected cells; host or cells: HEK293
Protocol: as §1, §2

[4] = MTT cell viability assay, CHO-K1; format: cell-based; conditions: Chinese hamster, CHO-K1 cells, 24 h exposure, mean of three independent measurements, read-out: IC50 ± SEM CHO-K1 cell viability
Protocol: (§3) Standard MTT assay (3-(4,5-dimethylthiazol-2-yl)-2,5-diphenyltetrazolium bromide; Sigma Aldrich, Prague, Czech Republic) was used according to the manufacturer’s protocols on the CHO-K1 (Chinese hamster ovary, ECACC, Salisbury, UK) and hCMEC/D3 (Sigma Aldrich, St. Louis, MO, USA). The cells were cultured according to recommended conditions and seeded in a density of 8000 cells per well, as described previously. […] CHO-K1 cells were exposed to serially diluted tested compounds for 24 h. Then, the medium was replaced by a fresh medium containing 0.5 mg/mL of MTT, and the cells were allowed to produce formazan for another approximately 3 h under surveillance. Thereafter, the medium with MTT was removed, and crystals of formazan were dissolved in DMSO (100 µL/well; PENTA s.r.o., Prague, Czech Republic). Cell viability was assessed spectrophotometrically by the amount of formazan produced. The absorbance was measured at 570 nm with a 650-nm reference wavelength on Synergy HT (BioTek, Winooski, VT, USA). The IC50 value (half-maximal inhibitory concentration) was calculated from the control-subtracted triplicates using nonlinear regression (four parameters) by GraphPad Prism 7.03 software (GraphPad Software Inc., San Diego, CA, USA) for the CHO-K1 cell line, and for hCMEC/D3 cells, the cell viability was expressed as the % relative to the untreated control. Final IC50 and SEM (standard error of the mean) values were obtained as a mean of three independent measurements.

[5] = MTT cell viability test, hCMEC/D3; format: cell-based; conditions: human, read-out: % viable cells hCMEC/D3
Protocol: as §3, with “The IC50 value (half-maximal inhibitory concentration) was calculated from the control-subtracted triplicates using nonlinear regression (four parameters) by GraphPad Prism 7.03 software (GraphPad Software Inc., San Diego, CA, USA) for the CHO-K1 cell line, and for hCMEC/D3 cells, the cell viability was expressed as the % relative to the untreated control.” left out

[6] = in vitro; conditions: human
Protocol: (§4) The D3 assay evaluates the ability of compounds to diffuse from the donor compartment through the D3/hCMEC cell membrane into the acceptor compartment. The D3 cells were seeded on a PET membrane (area 1.12 cm^2) with 3-µm pores of the 12-well plates with 12-mm inserts. […] The donor solution (750 µL) was added to the donor compartment (insert), and the same volume of Opti-MEM was added into the acceptor. The concentration of the drug in both compartments was measured by UV-VIS spectrophotometry in 5, 15, 30, and 60 min of incubation in triplicates. The apparent permeability coefficient (Papp) was calculated from the concentration ratios. Tightness of the D3 monolayer was conducted by the fluorescein isothiocyanate (FITC) test after each experiment. […] (1) Papp= dC/dt × Vr/A × C0 • A: area of the well/cell monolayer, • dC/dt: amount in the receiver compartment in given time, • Vr: volume of the receiver compartment, and • C0: the initial concentration of tested compounds.

[7] = tested on: hCMEC/D3 cell monolayer; test: in vitro; conditions: for potential of BBB permeation (in words): Papp correlated to reference drugs
Protocol: as §4

[8] = target: T1, hBChE; test: Kinetic study of hBChE inhibition; format: biochemical
Protocol: The kinetic study of hBChE was performed by using the above-mentioned modified Ellman’s method. The values of Vmax and Km of the Michaelis-Menten kinetics, as well as the value of Ki, were calculated by nonlinear regression from the substrate velocity curves. Linear regression was used for calculation of the Cornish-Bowden plots. All calculations were performed using GraphPad Prism software version 6.07 for Windows (San Diego, CA, USA).

[9] = target: NMDA receptor; conditions: read-out: IC50 inhibition of NMDA receptor responses; at −60 mV; cited from earlier work
[10] = final prediction from Papp correlated to reference drugs

T3 sequence (Q13224 27-1484, other chains not shown): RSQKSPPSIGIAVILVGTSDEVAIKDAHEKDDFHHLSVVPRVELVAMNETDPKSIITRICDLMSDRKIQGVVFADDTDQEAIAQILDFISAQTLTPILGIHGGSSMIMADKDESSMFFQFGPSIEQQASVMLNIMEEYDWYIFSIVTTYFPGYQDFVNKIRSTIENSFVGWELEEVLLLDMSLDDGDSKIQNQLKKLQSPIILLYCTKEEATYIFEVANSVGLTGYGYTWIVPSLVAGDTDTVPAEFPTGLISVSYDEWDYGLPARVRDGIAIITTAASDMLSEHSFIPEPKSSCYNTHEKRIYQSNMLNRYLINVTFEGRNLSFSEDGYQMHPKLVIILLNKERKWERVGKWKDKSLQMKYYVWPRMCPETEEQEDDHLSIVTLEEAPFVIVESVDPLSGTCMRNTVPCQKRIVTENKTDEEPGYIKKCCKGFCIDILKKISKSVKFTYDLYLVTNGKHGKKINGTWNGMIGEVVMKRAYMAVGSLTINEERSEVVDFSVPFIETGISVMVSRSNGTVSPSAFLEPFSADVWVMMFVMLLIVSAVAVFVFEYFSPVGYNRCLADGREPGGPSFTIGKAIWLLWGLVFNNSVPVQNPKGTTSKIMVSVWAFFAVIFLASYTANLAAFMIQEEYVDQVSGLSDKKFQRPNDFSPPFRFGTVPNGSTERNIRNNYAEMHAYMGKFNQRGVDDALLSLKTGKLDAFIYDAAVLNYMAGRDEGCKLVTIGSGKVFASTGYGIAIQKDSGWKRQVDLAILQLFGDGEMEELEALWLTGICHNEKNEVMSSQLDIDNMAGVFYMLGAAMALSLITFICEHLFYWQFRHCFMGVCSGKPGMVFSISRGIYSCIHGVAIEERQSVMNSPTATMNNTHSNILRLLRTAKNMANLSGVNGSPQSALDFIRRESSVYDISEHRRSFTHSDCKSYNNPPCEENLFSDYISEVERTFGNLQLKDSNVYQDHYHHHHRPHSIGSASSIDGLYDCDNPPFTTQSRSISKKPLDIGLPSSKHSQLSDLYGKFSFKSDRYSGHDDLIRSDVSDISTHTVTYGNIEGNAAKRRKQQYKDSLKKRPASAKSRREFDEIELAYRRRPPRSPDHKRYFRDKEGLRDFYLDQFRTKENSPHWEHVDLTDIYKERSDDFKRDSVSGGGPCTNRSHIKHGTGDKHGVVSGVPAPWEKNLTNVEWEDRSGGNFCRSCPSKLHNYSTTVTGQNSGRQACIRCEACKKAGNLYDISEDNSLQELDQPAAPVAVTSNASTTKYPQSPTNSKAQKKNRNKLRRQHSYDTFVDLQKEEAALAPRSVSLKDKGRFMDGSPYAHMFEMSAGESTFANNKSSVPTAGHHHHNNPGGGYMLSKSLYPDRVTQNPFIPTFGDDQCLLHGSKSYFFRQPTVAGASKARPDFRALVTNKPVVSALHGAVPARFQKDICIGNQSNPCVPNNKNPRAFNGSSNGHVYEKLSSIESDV
T1 sequence (P06276 29-602): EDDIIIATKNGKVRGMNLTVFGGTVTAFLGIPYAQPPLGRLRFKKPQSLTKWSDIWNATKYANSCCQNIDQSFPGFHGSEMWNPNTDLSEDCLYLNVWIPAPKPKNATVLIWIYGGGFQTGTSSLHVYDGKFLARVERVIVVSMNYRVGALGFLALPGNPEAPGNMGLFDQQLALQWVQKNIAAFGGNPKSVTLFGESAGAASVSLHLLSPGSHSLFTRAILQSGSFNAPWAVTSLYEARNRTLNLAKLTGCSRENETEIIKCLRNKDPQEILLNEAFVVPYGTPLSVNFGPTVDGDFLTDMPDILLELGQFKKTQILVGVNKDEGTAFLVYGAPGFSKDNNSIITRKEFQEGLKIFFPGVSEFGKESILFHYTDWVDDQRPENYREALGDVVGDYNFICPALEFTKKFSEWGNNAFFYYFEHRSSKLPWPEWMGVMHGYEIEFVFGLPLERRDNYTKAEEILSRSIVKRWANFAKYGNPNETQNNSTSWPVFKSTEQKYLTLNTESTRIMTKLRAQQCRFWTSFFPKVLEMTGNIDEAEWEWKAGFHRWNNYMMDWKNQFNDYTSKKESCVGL
T2 sequence (Q12879 23-1464, other chains not shown): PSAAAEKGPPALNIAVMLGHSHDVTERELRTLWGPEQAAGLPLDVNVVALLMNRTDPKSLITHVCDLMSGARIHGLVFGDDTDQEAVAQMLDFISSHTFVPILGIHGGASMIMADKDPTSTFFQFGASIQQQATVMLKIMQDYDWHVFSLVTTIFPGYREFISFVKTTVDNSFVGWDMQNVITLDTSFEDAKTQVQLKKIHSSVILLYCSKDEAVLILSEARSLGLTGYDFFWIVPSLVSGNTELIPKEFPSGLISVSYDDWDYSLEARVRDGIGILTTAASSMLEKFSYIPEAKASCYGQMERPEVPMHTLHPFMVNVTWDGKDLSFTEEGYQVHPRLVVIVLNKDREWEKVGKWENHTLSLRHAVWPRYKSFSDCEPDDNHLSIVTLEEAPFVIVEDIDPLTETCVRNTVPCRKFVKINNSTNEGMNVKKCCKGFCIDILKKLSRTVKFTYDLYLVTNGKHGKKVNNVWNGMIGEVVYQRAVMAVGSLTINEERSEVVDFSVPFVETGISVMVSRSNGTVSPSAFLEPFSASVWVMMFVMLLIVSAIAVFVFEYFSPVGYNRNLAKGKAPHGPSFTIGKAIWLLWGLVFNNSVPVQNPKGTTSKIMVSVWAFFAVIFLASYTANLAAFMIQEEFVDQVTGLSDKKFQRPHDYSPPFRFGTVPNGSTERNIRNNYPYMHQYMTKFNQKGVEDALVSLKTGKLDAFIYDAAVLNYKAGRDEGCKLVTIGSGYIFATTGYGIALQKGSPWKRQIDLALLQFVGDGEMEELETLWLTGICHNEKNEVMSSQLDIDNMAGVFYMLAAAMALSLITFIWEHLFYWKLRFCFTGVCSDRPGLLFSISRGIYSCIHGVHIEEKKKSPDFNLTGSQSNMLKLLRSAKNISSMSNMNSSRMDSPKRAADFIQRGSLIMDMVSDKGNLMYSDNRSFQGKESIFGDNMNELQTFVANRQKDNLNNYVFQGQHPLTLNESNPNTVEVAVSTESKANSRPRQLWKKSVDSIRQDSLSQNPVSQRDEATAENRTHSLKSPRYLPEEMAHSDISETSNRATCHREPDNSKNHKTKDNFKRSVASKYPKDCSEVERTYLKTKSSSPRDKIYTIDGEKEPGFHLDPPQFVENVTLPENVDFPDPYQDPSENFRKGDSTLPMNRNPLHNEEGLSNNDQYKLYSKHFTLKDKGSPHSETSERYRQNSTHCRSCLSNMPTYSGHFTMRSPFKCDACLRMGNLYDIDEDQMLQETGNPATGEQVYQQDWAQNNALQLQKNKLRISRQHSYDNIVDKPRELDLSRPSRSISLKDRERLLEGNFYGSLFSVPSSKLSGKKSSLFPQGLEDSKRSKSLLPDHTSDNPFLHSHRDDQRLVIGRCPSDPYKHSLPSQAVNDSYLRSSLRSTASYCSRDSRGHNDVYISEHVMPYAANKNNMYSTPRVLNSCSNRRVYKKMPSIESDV

Structure (SMILES) | IC50 [1] [nM] | inhibition at 10 µM [2] [%] | inhibition at 10 µM [3] [%] | IC50 at 24 h [4] [µM] | viability at 50 µM ([5]; hCMEC/D3 cells) [%] | viability at 100 µM ([5]; hCMEC/D3 cells) [%] | Papp [6] [×10⁻⁶ cm/s] | potential of BBB permeation (in words) [7] | CNS (+/−) [7, 10] | also measured
Cl.c1ccc2c(c1)-c1ccccc1C2NC1CCC1 [Compound 3e, N-Cyclobutyl-9H-fluoren-9-amine hydrochloride] | 2030 ± 80 | 52.3 ± 4.18 | 44.8 ± 3.43 | 192 ± 3 | 92.8 | 92.3 | 13.5 ± 1.54 | low potential to passively pass the BBB | CNS − | h 40 mV GluN1/GluN2A (Hill coefficient) ([2]; 40 mV): 1.28 ± 0.12; IC50 ([2]; 40 mV, read-out: IC50 40 mV GluN1/GluN2A): 82.6 ± 14.2 µM; h −60 mV GluN1/GluN2A (Hill coefficient) ([2]; −60 mV): 1.07 ± 0.05; IC50 ([2]; −60 mV, read-out: IC50 −60 mV GluN1/GluN2A): 8.85 ± 1.21 µM; h 40 mV GluN1/GluN2B (Hill coefficient) ([3]; 40 mV): 1.10 ± 0.08; IC50 ([3]; 40 mV, read-out: IC50 40 mV GluN1/GluN2B): 156 ± 14.9 µM; h −60 mV GluN1/GluN2B (Hill coefficient) ([3]; −60 mV): 1.17 ± 0.05; IC50 ([3]; −60 mV, read-out: IC50 −60 mV GluN1/GluN2B): 15.3 ± 2.38 µM
Cl.c1ccc2c(c1)-c1ccccc1C2NC1CCCCC1 [Compound 3c, N-Cyclohexyl-9H-fluoren-9-amine hydrochloride] | 470 ± 10 | 41 ± 3.56 | 17.2 ± 2.39 | 111 ± 10 | 93.4 | 82.9 | 12.3 ± 2.33 | low potential to passively pass the BBB | CNS − | times less active compared to THA (hBChE inhibition) [1]: 20; Ki ([8]; nonlinear regression, substrate butyrylthiocholine): 173 ± 25 nM; type of inhibition ([8]; sum-of-squares F-test, Cornish–Bowden plot): competitive inhibition
Nc1c2c(nc3ccccc13)CCCC2 [THA, Tacrine, reference compound] | – | – | – | – | – | – | 22.3 ± 2.01 | – | – | viability at 50 µM [5]: 91.1%; viability at 100 µM [5]: 94.5%; CNS (+/−) [7]: CNS +; IC50 [9]: 20 µM
